Where two headings read alike, the source gives them in different places.
Legend:
liver of BDL rats = assay: LA-ICP-MS gadolinium imaging of rat liver after Gd-9 MRI; assay type: in vivo; settings: BDL rat liver harvested 30 min p.i.
Method: LA-ICP-MS Gadolinium Imaging Analysis
Sample preparation. Harvested rat livers after MR imaging were immediately snapfrozen in OCT using liquid nitrogen, sectioned into 10-μm-thick slices, stored in −80° C. One slice was assessed by LA-ICP-MS directly. One adjacent slide was incubated with 0.1 mM Gd-9 at 37° C. for 2 h, followed with 0.2 mM NaBH3CN for 2 h and washed with PBS (3×10 min). Another adjacent slide was incubated with 0.1 mM Gd-9 and 10 mM hydrazine at 37° C. for 2 h, followed with 0.2 mM NaBH3CN for 2 hand washed with PBS (3×10 min). Similar procedures were carried out for human tissues. Slides were incubated with 0.1 mM Gd-9 at 37° C. for 2h, followed with 0.2 mM NaBH3CN for 2 h and washed with PBS (3×10 min).
Gadolinium mapping. Elemental images were collected from sections of liver tissue via laser ablation inductively coupled plasma mass spectrometry at the Biomedical National Elemental Imaging Resource (BNEIR). The instrumentation used was a New Wave Research 213 nm laser ablation system with a 10 cm^2 sample chamber, interfaced with an Agilent 7900 ICP-MS system. Samples were ablated in no-gas mode, with helium as a carrier gas at a flow rate of 600 L min^−1. […] Elemental imaging data was quantified using metal-doped gelatin standards prepared at BNEIR and National Institute of Standards and Technology (NIST) certified references material 1515 (apple leaves). […]

[1] = system: myocardium of SAMP8/SAMR1 mice with TAC; settings: 20 min post injection
Source text: Combined Heart and Lung Fibrosis Model:
Left ventricular dysfunction with pulmonary hypertension was induced by left thoracotomy transverse aortic constriction surgery (TAC) in 6-month-old senescence-accelerated-prone/resistant mice (SAMP8/SAMR1), which is a well-established model of pressure overload-induced cardiac hypertrophy that can induce heart and lung fibrosis. The transverse aorta was encircled with 7-0 nylon suture and tied tightly around a pre-sterilized, blunt-end of a 27-gauge needle. After securing the knot, the needle was removed, and aortic flow resumed. Another two groups of SAMP8 and SAMR1 mice received sham surgery as control. 3-weeks post-surgery, mice were anesthetized with isoflurane (1.5%) and imaged at a 4.7 Tesla Bruker MRI scanner.
For combined heart and lung imaging, a series of baseline images (2D T1 weighted FLASH for heart and 3D-UTE for lung) were first acquired. 2D T1 weighted FLASH: repetition time/echo time=18.24/3.54 ms; flip angle, 50°; field of view, 36×36 mm^2; matrix size, 138×138 mm^2; slice thickness, 1 mm; acquisition time, 3 minutes 50 seconds. 3D-UTE: repetition time/echo time=4/0.01225 ms; flip angle, 16°; field of view, 32×32 mm^2; matrix size, 128×128 mm^2; slice thickness, 0.25 mm; acquisition time, 3 minutes 36 seconds. Then a bolus of Gd-9 complex was administered i.v. and imaging performed for a period of 40 min p.i. with the repetition acquisition of 2D T1 weighted FLASH and 3D-UTE sequences. Following the imaging session, animals were sacrificed and heart and lung tissue was subjected to histopathologic analysis.
For heart imaging analysis, FLASH image pre-contrast and immediately post-contrast were used to define regions of interest (ROIs) in the myocardium that excluded blood vessels. The percentage of signal intensity change (% SI) was calculated by comparing the SI measured after probe injection to SI measured prior to probe injection.

PDAC6 xenograft tumor = assay: MR imaging of PDAC6 tumor xenograft model; assay type: in vivo, mouse; settings: 60 min post injection
Method: Male NU(NCr)-Foxn1nu nude mice at 6-8 weeks of age were provided by Charles River Labs, Wilmington, MA. A total of 1×10^7 patient derived metastatic pancreatic cancer cells (PDAC6) were injected into the subcutaneous space of the right lower back of the mice (n=4 per group). Mice were imaged with Mn-17 (100 μmol/kg) 4 weeks after implanting the tumor for pretreatment imaging, and another group of mice were imaged 3-days post treatment with FOLFIRINOX (Folinate 50 mg/kg, Oxaliplaton 2.5 mg/kg, Irinotecan 25 mg/kg, Fluorouracil 25 mg/kg).
For PDAC6 xenograft tumor imaging, images were acquired with following sequences and parameters: 3D T1 weighted FLASH (TR/TE/FA=14 ms/[…]/30°, 0.4 mm isotropic spatial resolution, field of view (FOV) 35 mm×35 mm, two average, acquisition time=4.3 min) images were acquired prior to and dynamically post injection of contrast agent; 3D RARE (RARE, TR/TE/FA=[…]/57 ms/180°, 0.3 mm isotropic spatial resolution, field of view (FOV) 35 mm×60 mm, one average, acquisition time=8.1 min) image was also acquired.
For tumor imaging analysis, RARE image and first FLASH image post-contrast were used to define volumetric region of interest (ROIs) in the tumor that excluded necrosis region. ΔCNR was calculated by eq 22.

[2] = 3-days post treatment (FOLFIRINOX)

SMILES | Gd accumulation in fibrotic septa (LA-ICP-MS) (liver of BDL rats) | % SI change of myocardium ([1]; SAMP1-Sham) | % SI change of myocardium ([1]; SAMP1-TAC) | % SI change of myocardium ([1]; SAMP8-Sham) | % SI change of myocardium ([1]; SAMP8-TAC) | ΔCNR of PDAC6 xenograft tumor (PDAC6 xenograft tumor; [2]) | ΔCNR of PDAC6 xenograft tumor (PDAC6 xenograft tumor; Pre-treatment)
NN1CCN(C(=O)CCC(C(=O)[O-])N2CCN(CC(=O)[O-])CCN(CC(=O)[O-])CCN(C(CCC(=O)N3CCN(N)CC3)C(=O)[O-])CC2)CC1.[Gd+3] (stereo not drawn) [Gd-9, cis-1,4-Gd-(CHyd)2] | ~50 ppm | 7.8 ± 4.7% | 21.5 ± 8.4% | 8.2 ± 5.3% | 22 ± 7.9% |  | 
NNCC(=O)NCCCN1CCN(CC(=O)[O-])Cc2cccc(n2)CN(CC(=O)[O-])CC1.[Mn+2] [Mn-17] |  |  |  |  |  | 6.4 ± 1.2 | 4.6 ± 1.0
CN(C)C(CCC(=O)NCCCN1CCN(CC(=O)[O-])Cc2cccc(n2)CN(CC(=O)[O-])CC1)C(=O)O.[Mn+2] (stereo not drawn) [Mn-18] |  |  |  |  |  | 0.4 ± 0.3 | 0.4 ± 0.3
